Like-named read-outs stand apart in the source and are kept apart here.
Legend:
Type in all cases: cell-based
[1] = test system: Chlamydomonas reinhardtii cells; assay: Levels of proteins required for photosynthesis; conditions: Rubisco large and small sub unit, PSa D, PSb A, phosphoribulokinase, histone; FIG. 8
[2] = test system: Chlamydomonas reinhardtii cells; assay: Cellular chlorophyll and carotenoid levels; conditions: 30 μM, FIG. 7
[3] = test system: Chlamydomonas reinhardtii cells; assay: Lipid accumulation using lipophilic dye Nile Red; conditions: for lipid accumulation: 0.5 μM to 15.0 μM, FIG. 3; for lipid accumulation over 72 hours: 30 μM test compound, FIG. 4
Protocol: […] At the indicated times 200 μL cells were removed from each well and optical density and nile red fluorescence were measured.
Lipid accumulation over a period of 72 hours was also measured (30 μM test compound) using lipophilic dye Nile Red, as shown in FIG. 4. […] FIGS. 12A-12C show representative images of C. reinhardtii cultures that were treated with 10 μM of representative test compounds of Formula Ia, Formula IIa, and Formula IIIa. The corresponding lipid accumulation was visualized using confocal microscopy after 72 hours in culture.

[4] = test system: Chlamydomonas reinhardtii cells; assay: Triglyceride assay; conditions: 5 μM, FIG. 6
[5] = test system: Chlamydomonas reinhardtii cells; assay: Fatty acid assay; conditions: 30 μM, FIG. 5
[6] = test system: Chlamydomonas reinhardtii cells; assay: Cellular carbohydrate levels; conditions: 30 μM, FIG. 9
[7] = test system: Chlamydomonas reinhardtii cells; assay: Microscopy of treated cells (organelles, lipid droplets); conditions: FIG. 1
Protocol: (§1) The screening library included 43,736 compounds (ChemBridge, Corp). […] A sub-set of compounds were retested using an 8-point dose response assay (0.25-30 μM). Compounds were further assessed visually using a Nikon Ti-inverted microscope (60×) to reconfirm lipid droplet accumulation was induced.

[8] = test system: Chlamydomonas reinhardtii cells; assay: Total protein levels in cells; conditions: FIG. 10
[9] = test system: Chlorella sorokiniana UTEX 1230; assay: Lipid accumulation in algal cells; conditions: 0.63 μM to 50 μM, FIG. 11A-11C
Protocol: (§2) Compounds 1, 62, and 136 were assayed in algal species Chlamydomonas reinhardtii CC125, Chlorella sorokiniana UTEX 1230, Chlorella vulgaris UTEX 395, and Tetrachlorella alterns UTEX 2453 at concentrations ranging from 0.63 μM to 50 μM.

[10] = test system: Chlamydomonas reinhardtii CC125; assay: Lipid accumulation in algal cells; conditions: 0.63 μM to 50 μM, FIG. 11A-11C
Protocol: as §2

[11] = test system: Chlorella vulgaris UTEX 395; assay: Lipid accumulation in algal cells; conditions: 0.63 μM to 50 μM, FIG. 11A-11C
Protocol: as §2

[12] = test system: Tetrachlorella alterns UTEX 2453; assay: Lipid accumulation in algal cells; conditions: 0.63 μM to 50 μM, FIG. 11A-11C
Protocol: as §2

[13] = test system: Chlamydomonas reinhardtii; assay: 8-point dose response assay (0.25-30 μM); design: reference not given here; conditions: for Dose Response Assay 0.25 μM: 0.25 μM compound; for Dose Response Assay 0.625 μM: 0.625 μM compound; for Dose Response Assay 2.5 μM: 2.5 μM compound; for Dose Response Assay 5 μM: 5 μM compound; for Dose Response Assay 10 μM: 10 μM compound; for Dose Response Assay 15 μM: 15 μM compound; for Dose Response Assay 30 μM: 30 μM compound
Protocol: A large scale in vivo high throughput screen (HTS) was performed to identify small compounds that stimulate lipid production and accumulation using the model organism Chlamydomonas reinhardtii. The HTS employed a 384-well microplate format in which cells were allowed to grow in the presence of the test compounds at 10 μM final concentration for 72 hours.
as §1

[14] = 8-point dose response, Nile Red lipid accumulation

Structure (SMILES) | Dose Response Assay 1.25 μM [13] | Dose Response Assay 0.25 μM [13, 14] | Dose Response Assay 0.625 μM [13, 14] | Dose Response Assay 2.5 μM [13, 14] | Dose Response Assay 5 μM [13, 14] | Dose Response Assay 10 μM [13, 14] | Dose Response Assay 15 μM [13, 14] | Dose Response Assay 30 μM [13, 14] | also measured
COc1ccc(CCN(C)Cc2ccc([N+](=O)[O-])cc2)cc1OC [Compound 1, 2-(3,4-dimethoxyphenyl)-N-methyl-N-(4-nitrobenzyl)ethan-1-amine] |  |  |  |  |  |  |  |  | levels of proteins required for photosynthesis [1]: did not significantly affect; carotenoid levels [2]: did not significantly alter; levels of chlorophyll A (Chl A) [2]: did not significantly alter; levels of chlorophyll B (Chl B) [2]: did not significantly alter; lipid accumulation [3]: increased lipid accumulation; lipid accumulation over 72 hours [3]: increased lipid accumulation; triacylglyercol levels [4]: increased triacylglyercol levels; fatty acid levels [5]: increased fatty acid levels; carbohydrate levels [6]: increased carbohydrate levels; disruption of major organelles including nucleus, endoplasmic reticulum, and chloroplast [7]: does not disrupt major organelles; total protein levels [8]: None of the test compounds significantly affected; lipid accumulation [9]: stimulated lipid accumulation; lipid accumulation [10]: stimulated lipid accumulation; lipid accumulation [11]: stimulated lipid accumulation; lipid accumulation [12]: stimulated lipid accumulation
COc1ccccc1N1CCN(Cc2ccc(O)cc2)CC1 [Compound 62, 4-((4-(2-methoxyphenyl)piperazin-1-yl)methyl)phenol] |  |  |  |  |  |  |  |  | levels of proteins required for photosynthesis [1]: minor effects; carotenoid levels [2]: did not significantly alter; levels of chlorophyll A (Chl A) [2]: did not significantly alter; levels of chlorophyll B (Chl B) [2]: did not significantly alter; lipid accumulation [3]: increased lipid accumulation; lipid accumulation over 72 hours [3]: increased lipid accumulation; triacylglyercol levels [4]: increased triacylglyercol levels; fatty acid levels [5]: increased fatty acid levels; carbohydrate levels [6]: increased carbohydrate levels; disruption of major organelles including nucleus, endoplasmic reticulum, and chloroplast [7]: does not disrupt major organelles; total protein levels [8]: None of the test compounds significantly affected; lipid accumulation [9]: stimulated lipid accumulation; lipid accumulation [10]: stimulated lipid accumulation; lipid accumulation [11]: stimulated lipid accumulation; lipid accumulation [12]: stimulated lipid accumulation
Fc1ccc(CN2CCN(c3ccccc3Cl)CC2)cc1 [Compound 69] | 1.29 | 1.05 | 0.96 | 3.01 | 2.44 | 3.49 | 3.49 | 2.54 | 
CC(C)c1ccc(CN2CCN(C)CC2)cc1 [Compound 70] | 2.19 | 0.87 | 1.55 | 4.4 | 8.64 | 7.57 | 11.05 | 11.07 | 
Cc1cccc(N2CCN(Cc3ccc([N+](=O)[O-])cc3)CC2)c1C [Compound 74] | 0.80 |  |  |  |  |  |  |  | 
CCc1ccc(CN2CCN(c3ccccc3C)CC2)cc1 [Compound 84] | 1 | 0.92 | 0.89 | 2.5 | 2.05 | 1.64 | 2.19 | 1.34 | 
Brc1ccc(CN2CCN(c3ccccc3)CC2)cc1 [Compound 86] | 1.69 | 0.98 | 1.01 | 2.39 | 2.29 | 2.71 | 3.38 | 3.76 | 
COc1cc(CN2CCN(Cc3ccccc3)CC2)cc(OC)c1 [Compound 99] | 0.97 | 0.98 | 0.84 | 1.4 | 1.96 | 2.96 | 3.37 | 4.22 | 
COc1cccc(CN2CCN(C(=O)c3cc(OC)c(OC)c(OC)c3)CC2)c1OC [Compound 101] | 1.14 | 1.03 | 1.08 | 0.88 | 1.58 | 1.04 | 1.43 | 1.75 | 
CCN1CCN(Cc2ccc(N(CC)CC)cc2)CC1 [Compound 104] | 3.96 | 1.23 | 3.68 | 5.27 | 4.04 | 2.81 | 3.28 | 3.69 | 
Oc1ccc(Cl)cc1CN1CCN(Cc2ccccc2)CC1 [Compound 107] | 1.23 | 0.98 | 1.01 | 2.05 | 2.31 | 2.48 | 3.07 | 3.06 | 
COc1ccccc1C(=O)N1CCN(C(=O)C(c2ccccc2)c2ccccc2)CC1 [Compound 120] | 0.89 | 0.91 | 0.64 | 1.12 | 1.07 | 2.15 | 3.19 | 1.02 | 
O=[N+]([O-])c1ccccc1CN1CCN(CC2CC3C=CC2C3)CC1 (stereo not shown) [Compound 124] | 0.99 |  |  |  |  | 0.88 |  |  | 
CC(=O)NC1=C(N2CCN(Cc3ccccc3)CC2)C(=O)c2ccccc2C1=O [Compound 134] | 0.93 | 0.97 | 1.06 | 1.32 | 1.77 | 1.31 | 1.97 | 2.14 | 
CN(CCC#N)C12CC3CC(CC(C3)C1)C2 [Compound 136, 3-(adamantan-1-yl(methyl)amino)propanenitrile] |  |  |  |  |  |  |  |  | levels of proteins required for photosynthesis [1]: did not significantly affect; carotenoid levels [2]: did not significantly alter; levels of chlorophyll A (Chl A) [2]: did not significantly alter; levels of chlorophyll B (Chl B) [2]: did not significantly alter; lipid accumulation [3]: increased lipid accumulation; lipid accumulation over 72 hours [3]: increased lipid accumulation; triacylglyercol levels [4]: increased triacylglyercol levels; fatty acid levels [5]: increased fatty acid levels; carbohydrate levels [6]: increased carbohydrate levels; disruption of major organelles including nucleus, endoplasmic reticulum, and chloroplast [7]: does not disrupt major organelles; total protein levels [8]: None of the test compounds significantly affected; lipid accumulation [9]: stimulated lipid accumulation; lipid accumulation [10]: stimulated lipid accumulation; lipid accumulation [11]: stimulated lipid accumulation; lipid accumulation [12]: stimulated lipid accumulation
Cl.Oc1ccccc1CNCCC12CC3CC(CC(C3)C1)C2 [Compound 148] |  | 0.94 | 1.04 | 1.32 | 1.63 | 1.39 | 1.65 | 1.45 | Dose Response Assay 1.25 μM ([13]; 1.25 μM compound, 8-point dose response, Nile Red lipid accumulation): 0.88

— patent publication US10351883B2, “Compounds for increasing lipid synthesis and storage” (NUtech Ventures, priority 2015, dated 2019)
